Reference: patent US20060148858A1, “1, 2-Azole derivatives with hypoglycemic and hypolipidemic activity” (priority 2002, published 2006)
Where two headings read alike, the source gives them in different places.

What was measured:
PPARδ-RXRα heterodimer = target: T1, PPARδ-RXRα heterodimer (Homo sapiens, UniProt Q03181); test: PPARδ-RXRα heterodimer ligand activity, luciferase reporter in COS-1 transformant (Test Example 4); type: cell-based; settings: COS-1 transformant (hPPARδ, hRXRα, reporter), 36-48 hours, concentration for 50% of the maximum fold induction
T1 construct: expressed in transfected cells; host or cells: COS-1
T1 sequence (Q03181 1-441): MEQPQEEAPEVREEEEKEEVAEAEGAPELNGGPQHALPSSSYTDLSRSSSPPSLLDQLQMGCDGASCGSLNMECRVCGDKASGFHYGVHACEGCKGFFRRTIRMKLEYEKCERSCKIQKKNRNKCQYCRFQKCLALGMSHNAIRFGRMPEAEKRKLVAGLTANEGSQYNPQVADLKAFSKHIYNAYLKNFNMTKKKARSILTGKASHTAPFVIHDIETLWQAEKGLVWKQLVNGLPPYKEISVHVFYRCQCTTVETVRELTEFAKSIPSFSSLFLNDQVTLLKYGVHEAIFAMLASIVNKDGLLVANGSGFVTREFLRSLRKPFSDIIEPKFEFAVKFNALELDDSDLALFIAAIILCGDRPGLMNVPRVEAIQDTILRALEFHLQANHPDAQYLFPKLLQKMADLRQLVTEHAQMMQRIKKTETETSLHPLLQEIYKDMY
T1 sequence (P19793 1-462 partner): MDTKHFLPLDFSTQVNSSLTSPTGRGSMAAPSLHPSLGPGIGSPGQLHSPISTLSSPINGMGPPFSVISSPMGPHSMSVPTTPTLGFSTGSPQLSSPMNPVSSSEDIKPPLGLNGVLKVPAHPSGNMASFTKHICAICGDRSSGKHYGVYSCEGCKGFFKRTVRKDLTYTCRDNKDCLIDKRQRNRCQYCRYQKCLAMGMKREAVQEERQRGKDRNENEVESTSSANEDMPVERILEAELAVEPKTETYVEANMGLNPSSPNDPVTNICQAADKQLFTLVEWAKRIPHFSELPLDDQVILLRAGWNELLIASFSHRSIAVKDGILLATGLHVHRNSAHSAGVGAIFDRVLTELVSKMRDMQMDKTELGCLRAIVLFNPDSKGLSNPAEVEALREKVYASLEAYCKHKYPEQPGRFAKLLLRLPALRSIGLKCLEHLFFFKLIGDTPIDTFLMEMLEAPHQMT
In short: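 COS-1 cells transiently co-transfected with human PPARδ, human RXRα, PPRE-luciferase reporter and pRL-tk, then exposed to compound 36-48 h at 37 °C in DMEM with 0.1% fatty acid-free BSA. Luciferase read as fold induction over untreated; EC50 at 50% of maximal fold induction.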

KKAY mice = test: Hypoglycemic and hypolipidemic actions in mice (Test Example 1); type: in vivo; settings: Mus musculus, po, 96 h, 0.005% in powdery diet, four days, non-treated group taken as 100%
In short: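 KKAY mice (9 to 12 weeks old, 5 per group) were fed diet containing 0.005% test compound ad libitum for four days. Plasma glucose and triglycerides from orbital venous blood were measured enzymatically, reported as % decrease relative to untreated group (100%).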

[1] = rate of decrease in blood glucose level, read-out: Hypoglycemic action (%)
[2] = rate of decrease in blood triglyceride level, read-out: Hypolipidemic action (%)

| EC50 (PPARδ-RXRα heterodimer) [nM] | Structure (SMILES) | inhibition in vivo at 0.005 % in diet (KKAY mice; [1]) [%] | inhibition in vivo at 0.005 % in diet (KKAY mice; [2]) [%] |
| --- | --- | --- | --- |
| 320 | COc1cccc(CC(=O)O)c1OCCCc1cn(-c2ccc(C(F)(F)F)nn2)nc1C(C)C [Example 274, [2-(3-{3-isopropyl-1-[6-(trifluoromethyl)pyridazin-3-yl]-1H-pyrazol-4-yl}propoxy)-3-methoxyphenyl]acetic acid] | 50 | 60 |
| 280 | COc1cccc(CC(=O)O)c1OCCCc1cn(-c2ccc(Cl)cn2)nc1C(C)C [Example 311, (2-{3-[1-(5-chloro-2-pyridinyl)-3-isopropyl-1H-pyrazol-4-yl]propoxy}-3-methoxyphenyl)acetic acid] | 52 | 29 |
| 45 | CCC(CC)c1nn(-c2ccc(C(F)(F)F)nn2)cc1CCCOc1c(C)cccc1CC(=O)O [Example 340, [2-(3-{3-(1-ethylpropyl)-1-[6-(trifluoromethyl)pyridazin-3-yl]-1H-pyrazol-4-yl}propoxy)-3-methylphenyl]acetic acid] | 49 | 55 |
| 72 | CCC(CC)c1nn(-c2ccc(Br)cn2)cc1CCCOc1c(CC(=O)O)cccc1OC [Example 351, (2-{3-[1-(5-bromo-2-pyridinyl)-3-(1-ethylpropyl)-1H-pyrazol-4-yl]propoxy}-3-methoxyphenyl)acetic acid] | 51 | 49 |
